The text below walks through data of US9266835B2, “Quinoline derivatives useful as CB-1 inverse agonists” (JANSSEN PHARMACEUTICA NV, priority 2014, dated 2016).

In data set [1] the target is Human CB1R (Cannabinoid receptor 1) (Homo sapiens (Human), UniProt P21554). Briefly: CB-1 in vitro cAMP assay (HTRF), inverse agonism. Type of data set: cell-based. The conditions noted are these: mean where tested more than once. In general terms: Changes in cAMP serve as a functional read-out for many G protein-coupled receptors.
Sequence of Human CB1R (Cannabinoid receptor 1) (P21554 whole entry): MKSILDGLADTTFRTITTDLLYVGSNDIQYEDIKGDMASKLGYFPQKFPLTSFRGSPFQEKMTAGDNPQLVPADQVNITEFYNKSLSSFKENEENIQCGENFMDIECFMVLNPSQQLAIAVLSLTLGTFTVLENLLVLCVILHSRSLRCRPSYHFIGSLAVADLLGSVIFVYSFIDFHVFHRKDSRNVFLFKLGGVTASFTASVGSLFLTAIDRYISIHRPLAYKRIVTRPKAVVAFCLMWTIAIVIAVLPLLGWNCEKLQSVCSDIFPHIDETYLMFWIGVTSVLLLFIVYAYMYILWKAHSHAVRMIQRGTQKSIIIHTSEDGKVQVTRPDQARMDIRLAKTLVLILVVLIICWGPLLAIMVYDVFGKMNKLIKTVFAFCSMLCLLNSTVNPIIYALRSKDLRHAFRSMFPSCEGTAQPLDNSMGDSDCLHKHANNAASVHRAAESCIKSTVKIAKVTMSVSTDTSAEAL
The nature of data set [2]: Chronic DIO Mouse, first study: plasma and brain concentrations. The conditions noted are these: male, DIO mice, 2 Hours Post Dose, Day 16, (Std Dev). Type of data set: in vivo. The procedure: Male 14-20-week old diet-induced obese mice were ordered from Taconic. Mice were started on a 60% fat diet (D12492, Research Diets, New Brunswick, N.J.) at 6 weeks of age. Mice were single-housed.
(§1) Test compounds were formulated in 10% PEG400 and 10% solutol. Test compounds were administered by oral gavage (5 ml kg^−1).
The test compound was formulated in 10% PEG400 and 10% solutol. DIO mice received vehicle, test compound (@ 1, 3 and 10 mg/kg) daily for 26 days. At the end of the experiment, the mice were euthanized and blood and tissues were collected.
Compound #44 was tested according to the procedure as described above, with results as listed in Table BIO-4A through Table BIO4-G, below.

Data set [3] can be described thus: Open Field Locomotor Activity in Rats (CNS activity), stereotypic counts. The conditions noted are these: n=8, 4 hours, dose not printed in row (doses 3 and 10 mg/kg). Type of data set: in vivo, rat.
Excerpt: (§2) Male Sprague Dawley rats were ordered from Charles River (225-250 gm upon arrival). They were fed standard chow diet (Purina 5001) and housed 2 per cage. Male C57bl/6j mice were ordered from Charles River at 22-25 g and housed 3 per cage. They were fed standard chow (Purina 5001). All animals were housed in a temperature-controlled room with 12-hour light/dark cycle. Animals were given food and water ad libitum, except as noted.
as §1
Male SD rats were weighed and transferred to the Activity Chambers with access to water. After a 2-hr acclimation period, the rats were dosed with vehicle or test compound (@ 3 and 10 mg/kg). The Activity Chamber monitoring software program was initiated and automatically recorded rat activity in each chamber for a period of 4 hours. At the end of the 4 hour monitoring period, the software was stopped and the rats were removed from the activity chambers. The rats were anesthetized and blood samples were obtained via retro-orbital puncture to determine plasma concentration of compounds. The rats were immediately euthanized with CO2 and the brains removed, washed with PBS, frozen on dry ice and stored at −80° C. for receptor occupancy (RO) analysis. […]

The nature of data set [4]: Open field locomotor study in rats: plasma and brain concentrations 4 hrs post dosing. The conditions noted are these: male, Sprague Dawley, rat, oral. Type of data set: in vivo.
Excerpt: as §2, §1
Male SD rats were weighed and transferred to the Activity Chambers with access to water. After a 2-hr acclimation period, the rats were dosed with vehicle or test compound (@ 3 and 10 mg/kg). The Activity Chamber monitoring software program was initiated and automatically recorded rat activity in each chamber for a period of 4 hours. At the end of the 4 hour monitoring period, the software was stopped and the rats were removed from the activity chambers. The rats were anesthetized and blood samples were obtained via retro-orbital puncture to determine plasma concentration of compounds. The rats were immediately euthanized with CO2 and the brains removed, washed with PBS, frozen on dry ice and stored at −80° C. for receptor occupancy (RO) analysis.
Satellite groups of 3 rats were dosed with test compound at 3 mg/kg and 10 mg/kg respectively. Four hours later, the rats were anesthetized. Blood was collected from these rats and then they were perfused with 400 ml heparinized saline through the left ventricle of the heart. The brains were removed and homogenized in PBS (4 ml/gm tissue). The samples were submitted for determination of plasma and brain compound levels.
Compound #44 was tested in n=8 animals, according to the procedure as described above, with stereotypic counts as listed in Table BIO-5A; and plasma and brain drug levels as listed in Table BIO-5B, below.

Structures are written as SMILES. Where two headings read alike, the source gives them in different places.

One may read the EC50 as the concentration at which the effect is half-maximal. Lower therefore signals a more potent agent. Turning to `O=c1cc(NC2CCN(S(=O)(=O)C(F)(F)F)CC2)c2cc(C(c3ccc(Cl)cc3)c3ccc(Cl)cc3)ccc2[nH]1` [Compound #44, 6-(bis(4-chlorophenyl)methyl)-4-(1-(trifluoromethylsulfonyl)piperidin-4-ylamino)quinolin-2(1H)-one], the EC50 in data set [1] was 8 nM. Besides, the concentration at 2 h in data set [2] (brain, 1 mg/kg daily oral, read-out: Brain concentration) was determined as 59.4 ng/g; in data set [2] (brain, 3 mg/kg daily oral, read-out: Brain concentration) it was 114 ng/g; in data set [2] (brain, 10 mg/kg daily oral, read-out: Brain concentration) it was 244 ng/g; in data set [2] (plasma, 1 mg/kg daily oral, read-out: Plasma concentration) it was 31 ng/mL; in data set [2] (plasma, 3 mg/kg daily oral, read-out: Plasma concentration), 1510 ng/mL; in data set [2] (plasma, 10 mg/kg daily oral, read-out: Plasma concentration) it was 4440 ng/mL. Further, the “Stereotypic Counts (MEAN)” value in data set [3] (first #44 row) is listed as 3250; in data set [3] (second #44 row), 2850. Further, the concentration at 4 h in data set [4] (brain, 3 mg/kg, read-out: Brain Mean ± Std Dev) came out at 9.85 ng/g; in data set [4] (brain, 10 mg/kg, read-out: Brain Mean ± Std Dev) it was 22.7 ng/g; in data set [4] (plasma, 3 mg/kg, read-out: Plasma Mean ± Std Dev), 126 ng/mL; in data set [4] (plasma, 10 mg/kg, read-out: Plasma Mean ± Std Dev), 501 ng/mL.
